Results on seven compounds are retold here after patent EP2118137B1, “PEPTIDES AND POLYPEPTIDES WITH IMPROVED STABILITY USEFUL IN THE REGENERATION OF THE NERVOUS SYSTEM” (Neuronax, priority 2006, dated 2011).

Series [1] relates to cellules de la lignée B104. Nature of the series: Morphological differentiation and neurite outgrowth of B104 cells. The format is cell-based, rat. From the text: L'activité biologique des différents peptides a été analysée par ajout de chacun des peptides dans des cultures de cellules nerveuses et suivi des modifications morphologiques de ces cellules.
Des cellules de la lignée B104, issues de neuroblastome de rat, sont cultivées à raison de 1000 cellules par puits dans des plaques de 48 puits préalablement recouverts de poly-lysine (fourni par Sigma-Aldrich), dans du milieu de Eagle modifié par Dubelco (DMEM), supplémenté de glutamine et d'antibiotique, et additionné de 10% de sérum de veau foetal pendant la phase d'adhésion. Le milieu est ensuite remplacé par un nouveau milieu DMEM ne contenant pas de sérum et permettant la différenciation des cellules. Après traitement, c'est-à-dire après ajout du composé à tester, les cellules sont maintenues en culture à 37°C sous une atmosphère à 10% de CO2. L'évolution de la morphologie cellulaire et la prolifération sont suivies par examen microscopique en contraste de phase chaque jour sur la période de culture. La différenciation cellulaire, et en particulier l'effet sur la pousse neuritique, est alors mesurée.

Series [2] can be described thus: Stability of peptides in aqueous solution (HPLC purity on storage). Type of series: physicochemical. The conditions noted are these: 22°C, 50% relative humidity, HPLC after 0, 3, 7, 11 and 22 days. How it is done: Les peptides synthétiques ont été mis en solution aqueuse (1,5 mg de peptide dissout dans 1000 µL d'eau stérile).
Leur pureté a été testée par HPLC, elle était d'au moins 97,0%.
Ces solutions ont ensuite été diluées : à 0,4 mL de chacune de ces solutions, on a ajouté 1,1 mL d'eau purifiée.
Ces solutions ont été placées en étuve à 22°C et 50% d'humidité relative, et analysées après : 0, 3, 7, 11 et 22 jours.
L'analyse a été faite par HPLC en gradient de phase inverse à une concentration de 0,4 mg/mL, avec les paramètres suivants : - cartouche Symétrie RP18 (Waters) 125 x 4,6 mm - phases mobiles A : H2O + TFA 0.1 % (w/v) B : Acétonitrile + TFA 0.1 % (v/v) - détection : 210 nm - débit : 1 ml/min - volume d'injection : 20 µl de solution (soit 8 µg de peptide) - gradient : […]
Les échantillons ont été placés en étuve à 22 °C, 50 % d'humidité relative et analysés à : 0 jours, 3 jours, 7 jours, 11 jours et 22 jours.
Les résultats sont présentés dans le Tableau 1 et sur la Figuré 1.
Le paramètre « TR » exprime le temps de rétention du peptide en minutes dans la colonne de HPLC.
Le paramètre « Pureté » exprimé la pureté du peptide en % tel que déterminé par HPLC.
La colonne « Impuretés : TR est % » indique pour le pic supplémentaire le plus intense, le temps de rétention en minutes et le pourcentage en masse. La colonne SEQ indique le numéro de la séquence (SEQ ID N° X).

Series [3] relates to souris avec lésion ischémique partielle. Nature of the series: Mouse partial ischemic spinal cord lesion, functional evaluation of walking. Type of series: in vivo. The conditions noted are these: partial ischemic lesion causing paralysis. From the text: Une première caractérisation in vivo des phénomènes de repousse neuritique et de survie neuronale a été effectuée sur deux modèles d'animaux différents dans le cas du trauma de la moelle épinière (réparation de la moelle épinière après rupture).

The subject of series [4] is cellules B104. The conditions noted are these: cited from earlier work.
The subject of series [5] is cellules nerveuses. The conditions noted are these: added daily to the culture medium at its optimal dose; cited from earlier work.

“Also recorded” adds a separate entry of the source. Square brackets hold non-standard residues; d marks the D form. Peptide text beside a SMILES is read from it. 2Nal = N[C@@H](Cc1ccc2ccccc2c1)C(=O)O; Lys(iPr) = CC(C)NCCCC[C@H](N)C(=O)O; Abu = CC[C@H](N)C(=O)O

For the compound `CC[C@H](NC(=O)[C@H](CO)NC(=O)[C@H](CO)NC(=O)[C@H](Cc1c[nH]c2ccccc12)NC(=O)CNC(=O)[C@H](CO)NC(=O)[C@@H](N)Cc1c[nH]c2ccccc12)C(=O)N[C@@H](CO)C(=O)N[C@@H](CCCNC(=N)N)C(=O)N[C@@H](CO)C(N)=O` [NH2-W-S-G-W-S-S-Abu-S-R-S-NH2] (H-WSGWSS[Abu]SRS-NH2), the “induction de la pousse neuritique” value in series [1] (B104 cells) is “s'est montré actif”.
As to `CC[C@H](NC(=O)[C@H](CO)NC(=O)[C@H](CO)NC(=O)[C@H](Cc1c[nH]c2ccccc12)NC(=O)CNC(=O)[C@H](CO)NC(=O)[C@@H](N)Cc1c[nH]c2ccccc12)C(=O)N[C@@H](CO)C(=O)N[C@@H](CCCNC(=N)N)C(=O)N[C@@H](CO)C(=O)O` [SEQ ID N°4, W-S-G-W-S-S-Abu-S-R-S] (H-WSGWSS[Abu]SRS-OH), the “stabilité en solution aqueuse” value in series [2] is on record as “stabilité en solution améliorée”.
Same read-out and setting: next, `CC[C@H](NC(=O)[C@H](CCCNC(=N)N)NC(=O)[C@H](CO)NC(=O)[C@H](CS)NC(=O)[C@H](CO)NC(=O)[C@H](CO)NC(=O)[C@H](Cc1c[nH]c2ccccc12)NC(=O)CNC(=O)[C@H](CO)NC(=O)[C@@H](N)Cc1c[nH]c2ccccc12)C(=O)O` [SEQ ID N°5, W-S-G-W-S-S-C-S-R-Abu] (H-WSGWSSCSR[Abu]-OH): “stabilité en solution améliorée”; `CC(C)NCCCC[C@H](NC(=O)[C@H](CO)NC(=O)[C@H](CS)NC(=O)[C@H](CO)NC(=O)[C@H](CO)NC(=O)[C@H](Cc1c[nH]c2ccccc12)NC(=O)CNC(=O)[C@H](CO)NC(=O)[C@@H](N)Cc1c[nH]c2ccccc12)C(=O)N[C@@H](CO)C(=O)O` [SEQ ID N°6, W-S-G-W-S-S-C-S-K-(iPr)-S] (H-WSGWSSCS[Lys(iPr)]S-OH): “stabilité en solution améliorée”; `CC[C@H](NC(=O)[C@@H](N)Cc1c[nH]c2ccccc12)C(=O)NCC(=O)N[C@@H](Cc1c[nH]c2ccccc12)C(=O)N[C@@H](CO)C(=O)N[C@@H](CO)C(=O)N[C@@H](CS)C(=O)N[C@@H](CO)C(=O)N[C@@H](CCCNC(=N)N)C(=O)N[C@@H](CO)C(=O)O` [SEQ ID N°7, W-Abu-G-W-S-S-C-S-R-S] (H-W[Abu]GWSSCSRS-OH): “stabilité en solution améliorée”.
On the same count and under the same terms, the result for `N=C(N)NCCC[C@H](NC(=O)[C@H](CO)NC(=O)[C@H](CS)NC(=O)[C@H](CO)NC(=O)[C@H](CO)NC(=O)[C@H](Cc1c[nH]c2ccccc12)NC(=O)CNC(=O)[C@H](CO)NC(=O)[C@@H](N)Cc1ccc2ccccc2c1)C(=O)N[C@@H](CO)C(=O)O` [SEQ ID N°8, L-Nal2-S-G-W-S-S-C-S-R-S] (H-[2Nal]SGWSSCSRS-OH) reads “stabilité en solution améliorée”.
“W-S-G-W-S-S-C-S-R-S-C-G (WSGWSSCSRSCG) [SEQ ID N°1, séquence la plus représentative d'un motif TSR de la SCO-spondine]”: in series [2], the “stabilité en solution aqueuse” value is reported as “se dégrade plus vite; also recorded: diminue en solution aqueuse avec le temps”. In addition, in series [1], the “réponse des cellules B 104 (effet dose-réponse)” value is listed as “proportionnelle à la concentration de peptide”. Moreover, the “étalement du corps cellulaire” value in series [1] (24 hours after adding the peptides) is “cet effet est présent”. In addition, the “incidence du remplacement de l'extrémité carboxyterminale par une extrémité aminée sur l'effet du peptide” value in series [1] (B104 cells) is “aucune incidence”. Also, in series [1] (after 3 days of culture), the “nombre de neurites par cellule” value is recorded as “effet inducteur de la pousse neuritique” and the pousses neuritiques result is “pousses neuritiques importantes”. Further, the “activité régénératrice (évaluation fonctionnelle au niveau de la marche)” value in series [3] is on record as “activité régénératrice”. In addition, the pousses neuritiques entry in series [4] (after three days of culture, without serum) is “pousses neuritiques importantes”. In series [4], the différenciation cellulaire result is given as “induit la pousse neuritique et l'agrégation cellulaire”, the nombre de neurites result was “induit une augmentation” and the “taille du neurite le plus long” value is “induit une augmentation”. The “regroupements cellulaires (agrégation)” value in series [4] (from 3 or 4 days of culture) is recorded as “apparition de regroupements de ces cellules B 104 différenciées”. Further, the “effet sur la pousse neuritique (dose)” value in series [4] (increasing range of peptide concentrations) is recorded as “dépendant de la dose de peptide utilisée”. Moreover, the “effet du peptide avec ajout quotidien” value in series [5] is “l'effet observé était accentué”.
